Assay [1] relates to Mycobacterium tuberculosis. Put plainly: Antimycobacterial activity against Mycobacterium tuberculosis H37Rv. Format: functional, organism-based.
The target in assay [2] is T1, Enoyl-[acyl-carrier-protein] reductase [NADH] (Mycobacterium tuberculosis) (UniProt P9WGR1).
T1 sequence (whole entry): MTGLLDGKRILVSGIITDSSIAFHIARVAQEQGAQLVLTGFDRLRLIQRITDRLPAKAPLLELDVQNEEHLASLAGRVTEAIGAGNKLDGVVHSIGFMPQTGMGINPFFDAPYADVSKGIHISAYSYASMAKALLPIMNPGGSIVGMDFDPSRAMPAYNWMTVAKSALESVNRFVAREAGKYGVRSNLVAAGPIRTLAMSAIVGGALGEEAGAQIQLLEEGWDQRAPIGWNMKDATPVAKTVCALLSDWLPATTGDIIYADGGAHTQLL
Nature of the assay: Inhibition of Mycobacterium tuberculosis InhA enzyme at 10 uM relative to control.

For assay [3], the system named is Mycobacterium tuberculosis. Nature of the assay: Antimycobacterial activity against Mycobacterium tuberculosis incubated for overnight by NCCLS broth dilution method. The class given is functional.
Assay [4] relates to Mycolicibacterium smegmatis. Nature of the assay: Antimycobacterial activity against Mycobacterium smegmatis MC2 155 by broth dilution method. The class given is functional.
Assay [5] has as its system Mycobacterium tuberculosis. Nature of the assay: Antimycobacterial activity against Mycobacterium tuberculosis H37Rv ATCC 27294 by Alamar Blue staining-based broth microdilution assay. Format: functional.
Assay [6] has as its system Mycobacterium tuberculosis. Nature of the assay: Antimycobacterial activity against Mycobacterium tuberculosis H37Rv assessed as inhibition of mycobacterial growth at 12 ug/ml relative to control. The class given is functional.
Assay [7] has as its target T2, Phosphotyrosine protein phosphatase (Mycobacterium tuberculosis, UniProt A0A045ISB3).
T2 sequence (A0A045ISB3 whole entry): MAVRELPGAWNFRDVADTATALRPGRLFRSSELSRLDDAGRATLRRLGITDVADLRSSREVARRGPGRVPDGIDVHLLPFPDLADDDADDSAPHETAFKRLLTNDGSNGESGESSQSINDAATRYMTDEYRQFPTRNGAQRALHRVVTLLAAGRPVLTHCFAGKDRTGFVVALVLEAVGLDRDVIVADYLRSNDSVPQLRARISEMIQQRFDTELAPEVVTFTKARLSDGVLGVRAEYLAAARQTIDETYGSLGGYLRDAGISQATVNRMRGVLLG
Put plainly: Inhibition of Mycobacterium tuberculosis Protein Tyrosine Phosphatase B.

The test system of assay [8] is Mycobacterium tuberculosis. Put plainly: Antimycobacterial activity against Mycobacterium tuberculosis H37Rv by broth dilution method. Format: functional. In general terms: In broth dilution the organism is exposed to a series of concentrations in liquid medium.
Assay [9] in a line: Inhibition of Mycobacterium PknG.
Assay [10] has as its system Mycobacterium tuberculosis. Put plainly: Antimycobacterial activity against Mycobacterium tuberculosis H37Rv by Alamar Blue assay. The class given is functional. On the technique in general: The colour change of resazurin is a common sign of viable cells or microbes.
For assay [11], the system named is Mycolicibacterium phlei. Nature of the assay: Antimycobacterial activity against Mycobacterium phlei assessed as diameter of inhibition zone at 20 ug/disc. As to conditions: read-out: IZ. Format: functional.
The subject of assay [12] is Mycobacterium tuberculosis. Nature of the assay: Antimycobacterial activity against Mycobacterium tuberculosis assessed as diameter of inhibition zone at 40 ug/disc. Format: functional. As to conditions: read-out: IZ.
The subject of assay [13] is Mycobacterium tuberculosis. Put plainly: Antimycobacterial activity against Mycobacterium tuberculosis H37Ra. The class given is functional.
The test system of assay [14] is Mycolicibacterium smegmatis. Nature of the assay: Antimycobacterial activity against Mycobacterium smegmatis. The class given is functional.

Each structure is given as a SMILES string. ≈ marks a conversion by molar mass, not a printed value. A value given as a limit tells only on which side of the number the result lay.

In general, MIC refers to the lowest concentration found to suppress growth. Broadly, the inhibition is the share of the control response that was lost under treatment. For the compound `CCCCCC(=O)c1c(O)cc(CCCCC)oc1=O`, the MIC in assay [1] came to 2.79 µM (≈ 0.782 µg/mL). The compound also displayed an inhibition in assay [2] of 68%.
In assay [1], `CCCCCCCc1cc(O)c(CCCCCC)c(=O)o1` [PSEUDOPYRONINES B] came in with an MIC of 2.65 to 5.31 µM (≈ 0.78 to 1.56 µg/mL). Also, in assay [2], the inhibition worked out at 12%.
Consider `CN1C(=O)[C@]23CC4=CC=C[C@H](O)[C@H]4N2C(=O)[C@@]1(CO)SS3` [GLIOTOXIN], for which the MIC in assay [3] was below 0.03 µM.
The compound `C/C=C/C[C@@H]1NC(=O)[C@H](CC(C)C)N2C(=O)[C@H](C[C@H](C)[C@H]2O)N(C)C(=O)[C@H](C)NC(=O)[C@H](Cc2ccc(O)c([N+](=O)[O-])c2)NC(=O)[C@H](CC(C)C)N(C)C(=O)[C@H](Cc2cn(C(C)(C)[C@H]3CO3)c3ccccc23)NC1=O` showed an MIC in assay [4] of 0.12 µM (≈ 0.125 µg/mL).
In assay [5], `CCCCCCC[C@@H]1C[C@@H]2CCC3=C(C(=O)OC(C)CCCCCC[C@@H]4C[C@@H]5CC[C@@H]6C[C@H](C)NC(=N4)N65)C(C)N=C(N1)N32` (some centres not stated) displayed a minimal inhibitory concentration (MIC) of 5.23 µM (≈ 3.18 µg/mL).
Turning to `C/C=C1\NC(=O)[C@H](Cc2ccccc2)NC(=O)[C@@H](C(C)C)NC(=O)[C@@H]([C@@H](C)CC)NC(=O)[C@H](NC(=O)[C@H](NC(=O)[C@H](CCCN)NC(=O)[C@H]2CCCN2C(=O)[C@H](NC(=O)[C@@H](NC(=O)[C@@H](NC(=O)[C@H](NC(=O)CCCC(C)C)C(C)C)[C@@H](C)O)C(C)C)C(C)C)[C@@H](C)CC)[C@@H](C)OC(=O)[C@H](C(C)C)NC1=O`, in assay [6], the inhibition at 12 µg/mL is 67%.
By IC50 is commonly meant the concentration that gives 50% inhibition. In the case of `CC(=O)c1cc(C)c(O)c(Cc2c(O)cc(-c3ccc(O)c(O)c3)oc2=O)c1O`, in assay [7], 160 nM corresponded to half-maximal inhibition (IC50).
In assay [8], `C=CC(C)(C)n1cc(C[C@@H]2NC(=O)[C@H](C/C=C/C)NC(=O)[C@H](CC(C)C)N3C(=O)[C@H](C[C@H](C)[C@H]3O)N(C)C(=O)[C@H](C)NC(=O)[C@H](Cc3ccc(O)c([N+](=O)[O-])c3)NC(=O)[C@H](CC(C)C)N(C)C2=O)c2ccccc21` yielded an MIC of 0.0098 µM (≈ 0.0101 µg/mL).
In the case of `CC[C@H](C)/C=C(C)/C=C/C1=CC2=C(Cl)C(=O)[C@](C)(OC(C)=O)C(=O)C2=CO1` [SCLEROTIORIN], the IC50 in assay [9] worked out at 76500 nM.
For `C=CC(C)(C)n1cc(C[C@@H]2NC(=O)[C@H](C/C=C/C)NC(=O)[C@H](CC(C)C)N3C(=O)[C@H](C[C@H](C)[C@@H]3O)N(C)C(=O)[C@H](C)NC(=O)[C@H](Cc3ccc(O)c([N+](=O)[O-])c3)NC(=O)[C@H](CC(C)C)N(C)C2=O)c2ccccc21`, 0.0098 µM (≈ 0.0101 µg/mL) was the least that counted as inhibitory in [8] (MIC).
In [4], `C/C=C/C[C@@H]1NC(=O)[C@H](CC(C)C)N2C(=O)[C@H](C[C@H](C)[C@@H]2O)N(C)C(=O)[C@H](C)NC(=O)[C@H](Cc2ccc(O)c([N+](=O)[O-])c2)NC(=O)[C@H](CC(C)C)N(C)C(=O)[C@H](Cc2cn(C(C)(C)[C@H]3CO3)c3ccccc23)NC1=O` gave an MIC of 0.12 µM (≈ 0.125 µg/mL).
Consider `C[C@@H]1C[C@H](C)C(=O)/C=C/[C@@H]2[C@@H](O)[C@H]3OC4=C(C(=O)O[C@@]42C[C@H]3C)C1=O` (stereo in doubt; (-)-145), for which the MIC in assay [10] (Mycobacterium tuberculosis, H37Rv, read-out: MIC) stood at 3.6 µM (≈ 1.25 µg/mL).
Take `CCC(C)C(=O)N[C@H](Cc1ccccc1)C(=O)NC1C(=O)N[C@H](CC(C)C)C(=O)N[C@H](Cc2ccccc2)C(=O)N[C@H](CC(C)C)C(=O)N[C@H]([C@H](C)O)C(=O)N[C@@H](CO)C(=O)O[C@@H]1C` (some centres not stated): the inhibition at 12 µg/mL in assay [6] came out at 83%.
In assay [7], `CC(=O)c1cc(C)c(O)c(CC2=C(C)C(=O)C(O)=C(C)C2=O)c1O` came in with an IC50 of 1370 nM. This counts as single-digit micromolar.
Regarding `CC(C)=CCOc1cc(O)c2c3c(c(O)cc(C)c13)OC2=O`, the zone of inhibition at 20 µg/disc in assay [11] was found to be 22 mm.
Still for that read-out and setting: under `CC(C)=CCOc1cc(O)c2c3c(c(O)cc(C)c13)C(=O)OC2=O` stands 16 mm.
With `COc1cc(OC)c2c(O)c3c(=O)cc(C)oc3c(-c3c4cc(O)cc(OC)c4c(O)c4c(=O)cc(C)oc34)c2c1`, the zone of inhibition at 40 µg/disc in assay [12] worked out at 11 mm.
`C[C@@H]1C[C@H](C)C(=O)/C=C/[C@@H]2[C@@H](O)[C@H]3OC4=C(C(=O)O[C@@]42C[C@H]3C)C1=O` (stereo in doubt; (+)-145) yielded an MIC in assay [10] of 7.2 µM (≈ 2.49 µg/mL).
As for `C1=C2CCCC/C=C\C=C\CCN3CC[C@@H]4[C@H](CCCCCC/C=C\C=C/CCN(C2)C[C@H]14)C3` (relative stereo) [HALICYCLAMINE A], the MIC in assay [13] and in assay [14] was 2.16 to 10.8 µM (≈ 1 to 5.01 µg/mL) throughout.

These data come from ChEMBL document CHEMBL4400517, “Marine natural products as potential anti-tubercular agents” (Eur J Med Chem, 2019).
